Holding throughout (assay type): functional, cell-based
In assay [1] the test system is A549. Nature of the assay: Inhibition of non-small-cell lung adenocarcinoma (A549) after 48-h treatment. The note with it: Homo sapiens, A549, 48 h.
Assay [2] concerns MCF7. Nature of the assay: Inhibition of proliferative breast adenocarcinoma cell line MCF-7 after 48-h treatment. As to conditions: Homo sapiens, MCF7, 48 h.
In assay [3] the test system is A-427. Nature of the assay: Inhibition of large cell lung carcinoma (A427) after 48-h treatment. The note with it: Homo sapiens, A-427, 48 h.
For assay [4], the system named is MCF7. Nature of the assay: Inhibition of proliferation of breast adenocarcinoma cell line MCF-7. As to conditions: Homo sapiens.
Assay [5] has as its system A549. Nature of the assay: Inhibition of non-small-cell lung adenocarcinoma (A549). As to conditions: Homo sapiens.
The subject of assay [6] is A-427. Nature of the assay: Inhibition of large cell lung carcinoma (A427). As to conditions: Homo sapiens.

Bounds are passed on as bounds.

As for `CCCCCCCCCCCCCCCCOC[C@H](COC)COP(=O)([O-])OCC[N+](C)(C)C`, the IC50 – broadly, the concentration that gives 50% inhibition – in the assay with A549 [1] was found to be 7.5 µM; with MCF7 [2], 2 µM; in the assay on A-427 [3], 20 µM.
With `CCCCCCCCCCCCCCCCOC[C@@H](COC)COP(=O)([O-])OCC[N+](C)(C)C`, the IC50 is 2 µM in the assay with MCF7 [4], 10 µM in the assay on A549 [5] and more than 20 µM with A-427 [6].
The matching figures for `CCCCCCCCCCCCCCCCSCC(COC)COP(=O)([O-])OCC[N+](C)(C)C` (racemic) [ILMOFOSINE]: 2 µM, 10 µM and 20 µM.
